Here are results for two sequences from PMC10412585 (Nature Communications, 2023).

The subject of one assay is NKG2A+/NKG2C- NK cells. Kind of assay: NK cell activation assay with peptide-pulsed K562/HLA-E cells, NKG2A+/NKG2C- NK cells. Type of assay: cell-based, human. The conditions noted are these: K562/HLA-E target cells, 300 µM peptide ([…] µM BFAR263-271), E:T 2:1, 6 h; degranulation (CD107a), IFN-γ, TNF, CCL3; flow cytometry. (Flow cytometry measures light scatter and fluorescence of single cells or particles in a stream.)

The test system of another assay is NKG2A-/NKG2C+ NK cells. Kind of assay: NK cell activation assay with peptide-pulsed K562/HLA-E cells, NKG2A-/NKG2C+ NK cells. The conditions noted are these: K562/HLA-E target cells, 300 µM peptide ([…] µM BFAR263-271), E:T 2:1, 6 h; degranulation (CD107a), IFN-γ, TNF, CCL3; flow cytometry. Type of assay: cell-based, human.
In the next assay the test system is CD94/NKG2C. Kind of assay: Steady-state SPR of peptide-HLA-E single chain trimers with CD94/NKG2C. Type of assay: binding, human. Conditions: from Figure 5C KD values, stated in author rebuttal. As for the experimental part:
Specifically, we measured CD94/NKG2A and CD94/NKG2C affinity for HLA-E complexed with three sets of peptides. […] Third, we included […] peptide as a positive control.
Steady-state surface plasmon resonance experiments were performed with a Biacore T200 instrument. CD94/NKG2x in HBS-EP+ buffer was injected as analyte in a concentration range of 0.1 μM to 102.4 μM and flow rate of 10 μL/min at 25 °C. Data was fit with Prism 9.4 (GraphPad Software Inc; San Diego CA) to a “one site, specific binding” model. Sensorgrams are included in Supplemental Fig. 13.
For investigating WN peptides, biotinylated pMHC was immobilized at approximately 400 Response Units (RU) on a Series S SA sensor chip (Cytiva). […] CD94/NKG2A was injected followed by CD94/NKG2C.
For investigating human-derived peptides, Series S CM5 chips (Cytiva) were coupled to neutravidin and utilized. Biotinylated pMHC was immobilized at approximately 400 RU. On one chip, […] CD94/NKG2A was injected followed by CD94/NKG2C. On a second chip, PISD55-63 HLA-E SCT, AKAP6_388-396 HLA-E SCT, GTF3C5_293-301 HLA-E SCT, and reference HLA-DR401 were immobilized. CD94/NKG2C was injected followed by CD94/NKG2A. Rmax, fit values were calculated by Biacore software. Rmax, theoretical values were calculated using the analyte/ligand mass ratio (0.66) multiplied by the amount of ligand coupled to the chip.

For “VNPGRSLFL [BFAR263-271, human peptide from Bifunctional apoptosis regulator]”, the “inhibitory effects on NKG2A+ cells” value in the assay on NKG2A+/NKG2C- NK cells is reported as “minimal inhibitory effects”. Further, the “activating effects on NKG2C+ cells” value with NKG2A-/NKG2C+ NK cells is “clear activating effects”.
As for VMAPRTLFL [positive control], the “weaker affinity of CD94/NKG2C compared to CD94/NKG2A” value in the assay with CD94/NKG2C is given as ~ 3 fold; with CD94/NKG2C (listed as VL9) it was ~ 2.7 fold.
